Experimental data taken from the supplement of paper PMC8671470.
± gives the standard deviation of the averaged measurements.

Columns and labels:
Details in all cases: 72 h
[1] = system: BV-173
Outline: (§1)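 Seeded in RPMI 1640 at densities within the linear growth range, fifteen myeloid leukaemia cell lines were dispensed into 384-well plates with acoustically pre-printed compounds spanning five tenfold doses from 1 to 10,000 nM, in duplicate. The plates were kept for 72 h at 37 °C in 5% CO2 before luminescent ATP viability was measured and normalised to vehicle and to a positive control at 10 µM. Curves were fitted with a four-parameter log-logistic model. The IC50 was taken from those curves.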

[2] = system: HEL
Outline: as §1

[3] = system: HL-60
Outline: as §1

[4] = system: K-562
Outline: as §1

[5] = system: KCL-22
Outline: as §1

[6] = system: KG-1
Outline: as §1

[7] = system: KU-812
Outline: as §1

[8] = system: LAMA-84
Outline: as §1

[9] = system: ML-2
Outline: as §1

[10] = system: MOLM-13
Outline: as §1

[11] = system: MV4-11
Outline: as §1

[12] = system: Mono-Mac-6
Outline: as §1

[13] = system: NOMO-1
Outline: as §1

[14] = system: SHI-1
Outline: as §1

[15] = system: THP-1
Outline: as §1

[16] = system: HL-60; experiment: cell viability (% survival relative to DMSO control); higher = less cytotoxic
Outline: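 In 384-well plates, the full library was rescreened in duplicate on HL-60 cells in RPMI 1640 with 10% FBS, at 1–10,000 nM in five tenfold concentrations, for 72 h at 37 °C, 5% CO2. Each run also held DMSO or 100 nM of one of three metabolic inhibitors. Viability was measured by CellTiter-Glo and normalised to DMSO wells and to wells with proteasome inhibitor, present at 10 μM. Any area under the curve comes from four-parameter log-logistic fitting with drc and PharmacoGx.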

[17] = system: BV-173; experiment: cell viability (% survival relative to DMSO control, bortezomib = 0%); higher = less cytotoxic
Outline: (§2)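 Fifteen myeloid leukaemia cell lines (10 AML, 5 CML) were seeded at a density titrated to the linear growth range. They went into 384-well plates with compounds pre-printed at 1, 10, 100, 1000 or 10000 nM in duplicate. After 72 h at 37 °C with 5% CO2, viability was read by CellTiter-Glo luminescence. Values are percent survival, with vehicle set to 100% and a 10 µM positive control to 0%, averaged over the duplicates.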

[18] = system: HL-60; experiment: as above
Outline: as §2

[19] = system: K-562; experiment: as above
Outline: as §2

[20] = system: KCL-22; experiment: as above
Outline: as §2

[21] = system: KG-1; experiment: as above
Outline: as §2

[22] = system: KU-812; experiment: as above
Outline: as §2

[23] = system: LAMA-84; experiment: as above
Outline: as §2

[24] = system: ML-2; experiment: as above
Outline: as §2

[25] = system: MOLM-13; experiment: as above
Outline: as §2

[26] = system: MV4-11; experiment: as above
Outline: as §2

[27] = system: NOMO-1; experiment: as above
Outline: as §2

[28] = system: THP-1; experiment: as above
Outline: as §2

C=C(C)[C@H]1Cc2c(ccc3c2O[C@@H]2COc4cc(OC)c(OC)cc4[C@@H]2C3=O)O1 [Rotenone]
Details	IC50 (cell viability) [nM]
[1]	80
[2]	168
[3]	269
[4]	40.7
[5]	206
[6]	68.4
[7]	23.2
[8]	74.4
[9]	322
[10]	176
[11]	156
[12]	225
[13]	644
[14]	179
[15]	268

cell viability [%], [16]
Details	0.001 µM	0.01 µM	0.1 µM	1 µM	10 µM
co-treatment: AZD3965 100 nM	96.5 ± 2.8	99.7 ± 16	83 ± 2.4	83.4 ± 4.6	7.8 ± 1.9
co-treatment: DMSO vehicle	97.7 ± 17	103 ± 5.4	86.415 ± 0.053	30.8 ± 1.9	10.4 ± 4
co-treatment: GSK2194069 100 nM	86.2 ± 18	91.1 ± 11	78.3 ± 0.99	35.8 ± 0.99	12.9 ± 0.53
co-treatment: pictilisib 100 nM	83.6 ± 6.6	74.5 ± 32	83.9 ± 5.1	34.5 ± 0.37	9.82 ± 1.3

cell viability [%]
Details	1 nM	10 nM	100 nM	1000 nM	10000 nM
[17]	106	77	49.9	1.45	0.515
[18]	97.1	79.3	82.1	0.525	3.28
[19]	88.9	66.4	30.6	3.39	2.57
[20]	97.8	103	81.7	0.654	1.21
[21]	93.6	83.7	43.7	11.5	11.6
[22]	87.9	65.9	16.6	3.5	2.89
[23]	101	87.5	51.4	18.3	14.6
[24]	94.4	94.1	97.1	1.51	3.18
[25]	103	77.8	67.2	2.3	0.733
[26]	97.2	70	58.4	0.45	0.258
[27]	93.9	109	92	39.8	8.45
[28]	98.9	104	76.2	37.6	24.5

Oc1ccc(Nc2nc(-c3ccc(Cl)cc3)cs2)cc1 [SKI II]
Details	IC50 (cell viability) [nM]
[1]	1540
[2]	3220
[3]	2260
[4]	2510
[5]	3070
[6]	3930
[7]	2900
[8]	6790
[9]	5580
[10]	8970
[11]	3200
[12]	4120
[13]	> 10000
[14]	> 10000
[15]	2480

cell viability [%], [16]
Details	0.001 µM	0.01 µM	0.1 µM	1 µM	10 µM
co-treatment: AZD3965 100 nM	101.4 ± 0.73	103 ± 1.4	104 ± 1.8	104 ± 0.68	15.7 ± 2.8
co-treatment: DMSO vehicle	102 ± 5.4	105 ± 2.8	97.6 ± 3.2	100 ± 6	22.1 ± 9
co-treatment: GSK2194069 100 nM	99 ± 7.3	94.2 ± 8.9	99.8 ± 8.5	101 ± 1.1	30.7 ± 5.6
co-treatment: pictilisib 100 nM	96.5 ± 2.7	102 ± 1.6	101 ± 4.1	88 ± 2.7	3.95 ± 2.4

cell viability [%]
Details	1 nM	10 nM	100 nM	1000 nM	10000 nM
[17]	104	98.3	96.7	70.5	0.732
[18]	88.9	110	97.7	77.7	11.2
[19]	99.5	107	107	75.2	36.8
[20]	94.5	107	109	92.1	25.7
[21]	98	103	97.2	81.7	32.7
[22]	95.5	101	106	90.8	20.6
[23]	105	99.9	96.1	96.4	34.2
[24]	93.8	97.2	99.3	89.7	44
[25]	80	104	110	106	44.3
[26]	97.2	99.2	114	95.9	4.54
[27]	97.3	104	104	99.3	66.1
[28]	100	96.8	103	86.4	8.38
